Test results reported in US8158785B2, “5,7-disubstituted[1.3]thiazolo [4,5-D] pyrimidin-2(3H)-amine derivatives and their use in therapy” (AstraZeneca AB, priority 2006, dated 2012).

Molecular target: T1, hCX3CR1 (Homo sapiens, UniProt P49238)
T1 construct: expressed in transfected cells; host or cells: HEKS 293 (human embryonic kidney suspension) cells stably expressing chimeric G-protein Gαqi5
T1 sequence (P49238 1-355): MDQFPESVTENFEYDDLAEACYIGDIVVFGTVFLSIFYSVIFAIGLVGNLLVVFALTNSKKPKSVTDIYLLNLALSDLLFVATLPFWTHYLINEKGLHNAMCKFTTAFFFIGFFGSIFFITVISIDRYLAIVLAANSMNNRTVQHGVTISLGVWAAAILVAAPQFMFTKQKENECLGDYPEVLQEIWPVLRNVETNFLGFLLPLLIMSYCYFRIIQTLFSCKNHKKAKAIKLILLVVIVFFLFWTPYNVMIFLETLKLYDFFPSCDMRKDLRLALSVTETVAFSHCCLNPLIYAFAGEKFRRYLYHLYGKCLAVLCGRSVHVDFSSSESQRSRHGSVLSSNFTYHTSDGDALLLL
Assay: in vitro hCX3CR1 binding assay ([125I]-fractalkine competition binding, membranes)
Settings: competition with 10 pM [125I]-fractalkine, membranes of HEKS 293 cells expressing hCX3CR1, 25° C., 24 h
Description: The complete human CX3CR1 cDNA (GenBank accession number U20350) was extracted from human brain mRNA (Superscript, Life Technologies) and ligated into pCR-Blunt II TOPO vector (InVitrogen). The insert corresponding hCX3CR1 was isolated and further subcloned into pcDNA3.1zeo. Plasmid DNA was prepared using Plasmid Midi Kit (Qiagen). Using Superfect Transfection Reagent (Qiagen) according to the manufacturer's protocol the expression plasmid for hCX3CR1 was then introduced into human embryonic kidney suspension (HEKS) 293 cell line containing a vector for stable expression of a chimeric G-protein Gαqi5. A stable clone was generated utilizing zeocin (500 μg/mL) and hygromycin (100 μg/mL) selection. For further applications the cells were maintained in Dulbecco's modified Eagle's medium/Ham's nutrient mix F12 (DMEM/F12) containing pyridoxine and supplemented with 10% (v/v) fetal bovine serum, 2 mM L-glutamine, 100 U/ml penicillin and […] streptomycin, 250 μg/mL zeocin and 100 μg/mL hygromycin.
Cells are grown at 37° C. and 5% CO2 and harvested at 60-80% confluence in buffer containing 10 mM Tris-HCl pH 7.4, 5 mM EDTA, 0.1 mg/mL bacitracin. The cells are centrifuged at 300×g for 10 min and the pellet is resuspended in harvesting buffer (10 mM Tris-HCl, pH 7.4, 5 mM ethylenediaminetetra-aceticacid (EDTA) and 0.1 mg/mL bacitracin), pooled and homogenised using a Dounce homogeniser. The homogenate is centrifuged in 48000×g for 10 min and resuspended in harvesting buffer using Ultra-Turrax T8. Membrane aliquots are stored at −80° C. Protein concentration was determined in microtiter plates as described by Harrington (1990, Anal. Biochem. 186, 285-287).
Competition binding studies of [^125I]fraktalkine were performed in 2 mL 96-deep-well plates (Beckman, Germany) in a total volume of 1000 μL/well. Each well contained 10 pM [^125I]-fractalkine and membrane equivalent to receptor concentration of 1 pM in assay buffer (50 mM Hepes-KOH, pH 7.4, 10 mM MgCl2, 1 mM EDTA, 0.1% (w/v) gelatine). Ten concentrations (2 points/log unit) of the test compounds were pre-dissolved in DMSO and added to reach a final concentration of 1% (v/v) DMSO. The assay was initiated with the addition of membranes and incubated at 25° C. for 24 h. The reactions were stopped by rapid filtration through Whatman GF/B glass fiber filters pretreated with 0.3% polyethylimine and subsequent washing with ice-cold buffer (10 mM Hepes-KOH pH 7.4, 500 mM NaCl) using a Brandel receptor binding harvester. Scintillation cocktail was added and radioactivity was determined in a Packard 2500TR liquid scintillation counter. (Perkin Elmer, USA)

SMILES | Ki
CCC[C@H](CO)N(C)c1nc(S[C@@H](C)c2ccc(Cl)nc2)nc2nc(N)sc12 [Example 6, (2R)-2-[(2-amino-5-{[(1S)-1-(6-chloropyridin-3-yl)ethyl]thio}[1,3]thiazolo[4,5-d]pyrimidin-7-yl)(methyl)amino]pentan-1-ol] | 203 nM
CC(C)C[C@H](CO)Nc1nc(SC(C)c2ccc(F)cn2)nc2nc(N)sc12 (mixture of isomers) [Example 1, (2R)-2-[(2-Amino-5-{[1-(5-fluoropyridin-2-yl)ethyl]thio}[1,3]thiazolo[4,5-d]pyrimidin-7-yl)amino]-4-methylpentan-1-ol] | 21 nM
CC(C)C[C@H](CO)Nc1nc(S[C@@H](C)c2ccc(Cl)cn2)nc2nc(N)sc12 [Example 2, (2R)-2-[(2-Amino-5-{[(1S)-1-(5-chloropyridin-2-yl)ethyl]thio}[1,3]thiazolo[4,5-d]pyrimidin-7-yl)amino]-4-methylpentan-1-ol] | 6.2 nM
CC(C)C[C@H](CO)Nc1nc(S[C@@H](C)c2ncccc2F)nc2nc(N)sc12 [Example 5, (2R)-2-[(2-Amino-5-{[(1S)-1-(3-fluoropyridin-2-yl)ethyl]thio}[1,3]thiazolo[4,5-d]pyrimidin-7-yl)amino]-4-methylpentan-1-ol] | 23 nM
CCC[C@H](CO)Nc1nc(S[C@@H](C)c2ccc(Cl)nc2)nc2nc(N)sc12 [Example 7, (2R)-2-[(2-Amino-5-{[(1S)-1-(6-chloropyridin-3-yl)ethyl]thio}[1,3]thiazolo[4,5-d]pyrimidin-7-yl)amino]pentan-1-ol] | 149 nM
CC(C)C[C@H](CO)Nc1nc(S[C@@H](C)c2ccncc2Cl)nc2nc(N)sc12 [Example 9b, (2R)-2-[(2-amino-5-{[(1S)-1-(3-chloropyridin-4-yl)ethyl]thio}[1,3]thiazolo[4,5-d]pyrimidin-7-yl)amino]-4-methylpentan-1-ol] | 35 nM
CC(C)C[C@H](CO)Nc1nc(S[C@@H](C)c2ccc(F)cn2)nc2nc(N)sc12 (single isomer, unassigned) [Example 3] | 6.5 nM
CC(C)C[C@H](CO)Nc1nc(S[C@@H](C)c2cc(C#N)ccn2)nc2nc(N)sc12 [Example 8, 2-{(1S)-1-[(2-Amino-7-{[(1R)-1-(hydroxymethyl)-3-methylbutyl]amino}[1,3]thiazolo[4,5-d]pyrimidin-5-yl)thio]ethyl}isonicotinonitrile] | 81 nM
